The source of these data is publication PMC9397875 (PLoS ONE, 2022).

The test system of assay [1] is HCC70 triple negative breast cancer cells. Description: Resazurin cytotoxicity assay, HCC70. The format is cell-based. Conditions: for IC50: Homo sapiens, HCC70 cells, 96 hours treatment, resazurin, read-out: HCC70 IC50 (μM) ± SD; for SI (selectivity index) for HCC70: IC50 against MCF12A cells ÷ IC50 against HCC70 cells. As to the method:
(§1) Cytotoxicity and the IC50 of the synthetic compounds were determined using the resazurin assay, [12, 13]. The cancer cells MCF-7 hormone receptor positive breast cancer [estrogen receptor (ER)^+, progesterone receptor (PR)^+, human epidermal growth factor-2 (HER-2)^-; ATCC: HTB-22), HCC70 triple negative breast cancer (TNBC, ER^-, PR^-, HER-2^-; ATCC: CRL-2315) and a non-tumorigenic breast epithelial cell line MCF-12A (ATCC: CRL-10782), were seeded at a density of 5000 cells/well in a 96 well plate and were allowed to adhere overnight at 37°C in a 9% CO2 incubator. The cells were then treated with the synthetic compounds at a concentration range from 15.63–500.00 μM or with a vehicle control [0.2% (v/v) DMSO] for 96 hours at 37°C in a 9% CO2 incubator. Thereafter, […] of resazurin solution was added and the cells were incubated for 2–4 hours at 37°C in a 9% CO2 incubator. The fluorescence was then measured on a Spectramax spectrophotometer with excitation and emission wavelength set at 560 and 590 nm respectively. The experiment was done in technical triplicate and the data were analyzed using GraphPad Prism Inc, (USA) with half-maximal inhibitory concentration (IC50 values) determined by non-linear regression. Selectivity index values for the compounds were calculated as follows: (IC50 of compound against MCF12A cells)÷(IC50 of compound against breast cancer cells) where a SI > 1 is indicative of selective toxicity towards cancer cells vs non-cancerous cells.
(§2) The HCC70 (ATCC-CRL-2315) basal triple-negative breast cancer (TNBC) cell lines and MCF-7 luminal A cancer cell line (ATCC-HTB-22) were purchased from the American Type Culture Collection (ATCC, USA). The MCF-12A breast epithelial cell line (ATCC-CRL-10782) was a gift from Dr Anna-Mart Engelbrecht (Department of Physiology, Stellenbosch University, South Africa).

Assay [2] relates to MCF-7 hormone receptor positive breast cancer cells. The assay can be described thus: Resazurin cytotoxicity assay, MCF-7. The class given is cell-based. The note with it: for IC50: Homo sapiens, MCF7, MCF-7 cells, 96 hours treatment, resazurin, read-out: MCF-7 IC50 (μM) ± SD; for SI (selectivity index) for MCF-7: IC50 against MCF12A cells ÷ IC50 against MCF-7 cells. Here is the method:
as §1, §2
A general note: Alamar Blue is a resazurin reagent that responds to reducing activity.

Assay [3] relates to MCF-12A non-tumorigenic breast epithelial cell line. The assay can be described thus: Resazurin cytotoxicity assay, MCF-12A. The class given is cell-based. Conditions: Homo sapiens, MCF-12A cells, 96 hours treatment, read-out: MCF-12A IC50 (μM) ± SD. Here is the method:
as §1, §2

Assay [4] has as its system leukemia cells (K562). Further details: method as in ref 3, 19 = [3]; doi:10.1039/C2MD20172K; 3 Woods JR , Mo H , Bieberich AA , Alavanja T , Colby DA . Amino derivatives of the sesquiterpene lactone class of natural products as prodrugs . Med.Chem.Comm . 2013; 4 ( 1 ): 27 – 33 . doi: 10.1039 || [19]; 19 Unde NR , Hiremath SV , Kulkarni GH , Kelkar GR . Amino derivatives of sesquiterpenes lactone class of natural products prodrugs . Tetrahedron Lett . 1968; 9 : 4861 – 4862 . Conditions: antiproliferative; cited from earlier work.

For assay [5], the system named is colon cancer cells (SW-620). Further details: method as in ref 3 = [3]; doi:10.1039/C2MD20172K; 3 Woods JR , Mo H , Bieberich AA , Alavanja T , Colby DA . Amino derivatives of the sesquiterpene lactone class of natural products as prodrugs . Med.Chem.Comm . 2013; 4 ( 1 ): 27 – 33 . doi: 10.1039. Conditions: antiproliferative; cited from earlier work.
For assay [6], the system named is colorectal cancer cells (SW-620). On the set-up: method as in PMID 16766184. Conditions: cytotoxicity; cited from earlier work.

SMILES strings stand for the structures.

In the case of `C=C1CC[C@@H]2C(=C)CC[C@H]3[C@@H](OC(=O)[C@H]3CN(CC)CC)[C@H]12` (relative stereo) [DHLC-2, (*3aS,6aR,9aR,9bS*)-3-[(diethylamino)methyl]decahydro-6,9-bis(methylene)azuleno[4,5-b]furan-2(3H)-one], in assay [1], the half-maximal inhibitory concentration (IC50) (commonly the concentration that gives 50% inhibition) was 1.48 ± 1.49 µM and the “SI (selectivity index) for HCC70” value is “SI = 6.00”. For the same compound, in assay [2], the half-maximal inhibitory concentration (IC50) worked out at 0.07 µM and the “SI (selectivity index) for MCF-7” value was “SI = 126.86”. The concentration for half-maximal inhibition (IC50) in assay [3] was determined as 8.88 ± 1.1 µM.
In the case of `CC[C@@]1(O)C(=O)OCc2c1cc1n(c2=O)Cc2cc3ccccc3nc2-1` [Camptothecin, reference compound], the results for the IC50 in assay [1], in assay [2] and in assay [3] were 83.2 ± 1.08 µM, 104 ± 9.92 µM and 104.2 ± 1.04 µM, respectively.
Take `C=C1CC[C@H]2C(=C)CC[C@H]3C(=C)C(=O)O[C@@H]3[C@@H]12` [DHLC, Dehydrocostus lactone, reference compound]: the half-inhibitory concentration (IC50) in assay [1] is 1.11 ± 1.31 µM; in assay [2] it was 24.7 ± 1.25 µM; in assay [3] it was 0.07 ± 0.07 µM. Also, the “SI (selectivity index) for HCC70” value in assay [1] is given as “SI = 0.06”.
`C=C1CC[C@@H]2C(=C)CC[C@H]3[C@@H](OC(=O)[C@H]3CN(C)C)[C@H]12` [DHLC-1, Guaia-4(15),10(14)-dien-12-oic acid, 13-(dimethylamino)-6-hydroxy-γ-lactone]: in assay [1], the half-maximal inhibitory concentration (IC50) amounted to 0.64 ± 1.47 µM and the “SI (selectivity index) for HCC70” value was “SI = 13.23”. In assay [2], the IC50 came to 0.07 ± 0.07 µM and the “SI (selectivity index) for MCF-7” value is on record as “SI = 121”. Besides, the IC50 in assay [3] was determined as 8.47 ± 1.42 µM.
As for `C=C1CC[C@@H]2C(=C)CC[C@H]3[C@@H](OC(=O)[C@H]3CNCC)[C@H]12` [DHLC-3, Guaia-4(15),10(14)-dien-12-oic acid, 13-(ethylamino)-6-hydroxy-γ-lactone], in assay [1], the IC50 amounted to 3.25 ± 1.36 µM and the “SI (selectivity index) for HCC70” value is given as “SI = 57.91”. Further, the “SI (selectivity index) for MCF-7” value in assay [2] is given as “SI = 8.33”. In addition, the half-maximal inhibitory concentration (IC50) in assay [3] came out at 188.2 ± 1.35 µM.
Take `C=C1CC[C@@H]2C(=C)CC[C@H]3[C@@H](OC(=O)[C@H]3CNCCN)[C@H]12` [DHLC-4, 13-ethylenediamine dehydrocostus lactone]: in assay [1], the IC50 was determined as 2.71 ± 1.3 µM and the “SI (selectivity index) for HCC70” value is given as “SI = 54.50”. Besides, in assay [2], the concentration for half-maximal inhibition (IC50) came out at 4.24 ± 1.29 µM and the “SI (selectivity index) for MCF-7” value is “SI = 34.83”. The half-maximal inhibitory concentration (IC50) in assay [3] turned out to be 147.7 ± 1.28 µM.
`C=C1C(=O)O[C@@H]2/C=C(\C)CC/C=C(\C)CC[C@@H]12` [costunolide]: the GI50 (usually the concentration at which growth is held to half of that of the control) is 14.5 µM in assay [4] and 7.8 µM in assay [5]. Further, the IC50 in assay [6] is 7.8 µM.
